Legend:
[1] = target: T1, human PRS protein (His-Avi-hEPRS (998-1512)) (Homo sapiens, UniProt P07814); test: PRS inhibitory activity ([32P]pyrophosphate exchange enzyme assay); type: biochemical; details: 300 nM test compound; read-out: inhibitory rate (%) of PRS
T1 construct: to construct His-Avi-hEPRS (998-1512) expression plasmid; His tag (N); Avi tag (N); TEV cleavage site (ENLYFQG, then S; inferred from the forward primer hEPRS-TEV-NheF) (N); made in house; host or cells: E. coli BL21(DE3)
T1 sequence (P07814 998-1512 limits assumed): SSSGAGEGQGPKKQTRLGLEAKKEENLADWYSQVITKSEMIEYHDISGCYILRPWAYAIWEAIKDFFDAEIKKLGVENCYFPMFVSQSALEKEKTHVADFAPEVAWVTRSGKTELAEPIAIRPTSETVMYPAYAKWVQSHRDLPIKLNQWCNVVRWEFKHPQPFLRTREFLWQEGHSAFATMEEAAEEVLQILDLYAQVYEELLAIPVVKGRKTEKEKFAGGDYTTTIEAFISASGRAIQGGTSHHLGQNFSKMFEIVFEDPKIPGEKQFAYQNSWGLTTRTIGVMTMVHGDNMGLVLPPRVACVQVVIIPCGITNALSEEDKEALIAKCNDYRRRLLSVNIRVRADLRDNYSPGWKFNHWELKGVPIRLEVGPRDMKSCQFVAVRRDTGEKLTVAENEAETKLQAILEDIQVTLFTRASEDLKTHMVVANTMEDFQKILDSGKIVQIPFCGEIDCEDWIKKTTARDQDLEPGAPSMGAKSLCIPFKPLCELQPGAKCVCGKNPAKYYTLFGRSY
In short: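 Compound was pre-incubated 60 min with 40 nM His-Avi-hEPRS (998-1512) (stock, E. coli-expressed) in Tris pH 7.5/KCl/DTT/Tween/MgCl2. Reaction began with substrate mix containing 300 μM ATP, 160 μM L-proline, 400 μM [32P]pyrophosphate (stock levels) and ran 30 min at room temperature. Charcoal-bound radioactivity was counted; inhibition was relative to no-reaction control.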

[2] = test system: human ovarian cancer cells A2780; test: proliferation inhibitory activity against human ovarian cancer cell A2780 (CellTiter-Glo); type: cell-based; details: A2780, 72 h, 1 μM test compound, 3 days of culture, read-out: proliferation inhibitory rate (%) of A2780 cells
Protocol: The proliferation inhibitory activity of the compound of the present invention against human ovarian cancer cell A2780 was evaluated by the following method.
Human ovarian cancer cells A2780 were seeded in a 384 well culture plate at 1000 cells in 30 μL of medium per well by using RPMI-1640 medium (Wako Pure Chemical Industries, Ltd.) containing 10% fetal bovine serum and penicillin/streptomycin. The next day, 10 μL of RPMI-1640 medium containing the test compound was added to the cells. After 3 days of culture, 20 μL of CellTiter-Glo Luminescent Cell Viability Assay solution (Promega) was added. The luminescence signal was measured using EnVision (PerkinElmer) and the inhibitory rate (%) of the test compound was calculated with a well free of seeding of cell as 100% inhibition.

SMILES | inhibition at 0.3 µM [1] | inhibition at 1 µM [2]
Cn1cc(-c2cc(F)cc(CNC(=O)c3ncnc4nc(C5CCCCO5)n(C)c34)c2)cn1 (centres unmarked) [Example 63, N-(3-fluoro-5-(1-methyl-1H-pyrazol-4-yl)benzyl)-7-methyl-8-(tetrahydro-2H-pyran-2-yl)-7H-purine-6-carboxamide] | 102% | 98%
Cn1ncc(-c2cc(F)cc(CNC(=O)c3ncnc4nc(C5CCCC5)[nH]c34)c2)n1 [Example 71, 8-cyclopentyl-N-(3-fluoro-5-(2-methyl-2H-1,2,3-triazol-4-yl)benzyl)-7H-purine-6-carboxamide] | 100% | 70%
O=C(NCc1ccccc1Cl)c1nccc2nc(C3CCCC3)[nH]c12 [Example 81, N-(2-chlorobenzyl)-2-cyclopentyl-3H-imidazo[4,5-c]pyridine-4-carboxamide] | 97% | 56%
Cn1cc(-c2cccc(CNC(=O)c3nccc4nc(C5CCCC5)[nH]c34)c2)cn1 [Example 84, 2-cyclopentyl-N-(3-(1-methyl-1H-pyrazol-4-yl)benzyl)-3H-imidazo[4,5-c]pyridine-4-carboxamide] | 100% | 97%
Cn1cc(-c2cc(F)cc(CNC(=O)c3nccc4nc(C5CCCC5)[nH]c34)c2)cn1 [Example 86, 2-cyclopentyl-N-(3-fluoro-5-(1-methyl-1H-pyrazol-4-yl)benzyl)-3H-imidazo[4,5-c]pyridine-4-carboxamide] | 101% | 97%
Cn1cc(-c2cc(F)cc(CNC(=O)c3nccc4nc(C5CCCC5)n(C)c34)c2)cn1 [Example 88, 2-cyclopentyl-N-(3-fluoro-5-(1-methyl-1H-pyrazol-4-yl)benzyl)-3-methyl-3H-imidazo[4,5-c]pyridine-4-carboxamide] | 101% | 99%
Cn1cc(-c2cc(F)cc(CNC(=O)c3nccc4nc(C5CCCC5)[nH]c34)c2)nn1 [Example 89, 2-cyclopentyl-N-(3-fluoro-5-(1-methyl-1H-1,2,3-triazol-4-yl)benzyl)-3H-imidazo[4,5-c]pyridine-4-carboxamide] | 101% | 98%
Cn1cc(-c2cc(F)c(F)c(CNC(=O)c3nccc4nc(C5CCCC5)[nH]c34)c2)cn1 [Example 90, 2-cyclopentyl-N-(2,3-difluoro-5-(1-methyl-1H-pyrazol-4-yl)benzyl)-3H-imidazo[4,5-c]pyridine-4-carboxamide] | 101% | 96%
Cn1cc(-c2cc(F)cc(CNC(=O)c3nccc4nc(C5CCCC5)n(C)c34)c2)nn1 [Example 91, 2-cyclopentyl-N-(3-fluoro-5-(1-methyl-1H-1,2,3-triazol-4-yl)benzyl)-3-methyl-3H-imidazo[4,5-c]pyridine-4-carboxamide] | 101% | 98%
Cn1cc(-c2cc(F)cc(CNC(=O)c3nccc4nc(C5CCCC5)n(C)c34)c2)ccc1=O [Example 92, 2-cyclopentyl-N-(3-fluoro-5-(1-methyl-6-oxo-1,6-dihydropyridin-3-yl)benzyl)-3-methyl-3H-imidazo[4,5-c]pyridine-4-carboxamide] | 100% | 99%

Further lines, with some results ahead:

inhibition at 0.3 µM [1] | SMILES | inhibition at 1 µM [2]
97% | Cn1cc2c(CNC(=O)c3nccc4nc(C5CCCC5)[nH]c34)cccc2n1 [Example 94, 2-cyclopentyl-N-((2-methyl-2H-indazol-4-yl)methyl)-3H-imidazo[4,5-c]pyridine-4-carboxamide] | 64%
99% | Cn1ncc2cccc(CNC(=O)c3nccc4nc(C5CCCC5)[nH]c34)c21 [Example 95, 2-cyclopentyl-N-((1-methyl-1H-indazol-7-yl)methyl)-3H-imidazo[4,5-c]pyridine-4-carboxamide] | 56%
101% | COc1cc(-c2cc(F)cc(CNC(=O)c3nccc4nc(C5CCCC5)n(C)c34)c2)ccn1 [Example 96, 2-cyclopentyl-N-(3-fluoro-5-(2-methoxypyridin-4-yl)benzyl)-3-methyl-3H-imidazo[4,5-c]pyridine-4-carboxamide] | 95%
101% | Cn1c(C2CCCC2)nc2ccnc(C(=O)NCc3cc(F)cc(-c4cc[nH]c(=O)c4)c3)c21 [Example 97, 2-cyclopentyl-N-(3-fluoro-5-(2-oxo-1,2-dihydropyridin-4-yl)benzyl)-3-methyl-3H-imidazo[4,5-c]pyridine-4-carboxamide] | 98%
101% | Cn1ccc(-c2cc(F)cc(CNC(=O)c3nccc4nc(C5CCCC5)n(C)c34)c2)cc1=O [Example 98, 2-cyclopentyl-N-(3-fluoro-5-(1-methyl-2-oxo-1,2-dihydropyridin-4-yl)benzyl)-3-methyl-3H-imidazo[4,5-c]pyridine-4-carboxamide] | 98%
102% | CCn1c(C2CCCC2)nc2ccnc(C(=O)NCc3cc(F)cc(-c4cnn(C)c4)c3)c21 [Example 101, 2-cyclopentyl-3-ethyl-N-(3-fluoro-5-(1-methyl-1H-pyrazol-4-yl)benzyl)-3H-imidazo[4,5-c]pyridine-4-carboxamide] | 98%
99% | Cn1cc(-c2cc(F)cc(CNC(=O)c3nccc4nc(C5CCOC5)[nH]c34)c2)cn1 (centres unmarked) [Example 103, N-(3-fluoro-5-(1-methyl-1H-pyrazol-4-yl)benzyl)-2-(tetrahydrofuran-3-yl)-3H-imidazo[4,5-c]pyridine-4-carboxamide] | 73%
98% | Cn1cc(-c2cc(F)cc(CNC(=O)c3nccc4nc(CC5CCCC5)[nH]c34)c2)cn1 [Example 104, 2-(cyclopentylmethyl)-N-(3-fluoro-5-(1-methyl-1H-pyrazol-4-yl)benzyl)-3H-imidazo[4,5-c]pyridine-4-carboxamide] | 68%
99% | Cn1cc(NC(=O)c2cccc(CNC(=O)c3nccc4nc(C5CCCC5)[nH]c34)c2)cn1 [Example 106, 2-cyclopentyl-N-(3-((1-methyl-1H-pyrazol-4-yl)carbamoyl)benzyl)-3H-imidazo[4,5-c]pyridine-4-carboxamide] | 84%
100% | Cn1cc(-c2cc(F)cc(CNC(=O)c3nccc4nc(Cc5ccccc5)[nH]c34)c2)cn1 [Example 109, 2-benzyl-N-(3-fluoro-5-(1-methyl-1H-pyrazol-4-yl)benzyl)-3H-imidazo[4,5-c]pyridine-4-carboxamide] | 84%
101% | Cn1cc(-c2cc(F)cc(CNC(=O)c3ncc(F)c4nc(C5CCCC5)n(C)c34)c2)cn1 [Example 113, 2-cyclopentyl-7-fluoro-N-(3-fluoro-5-(1-methyl-1H-pyrazol-4-yl)benzyl)-3-methyl-3H-imidazo[4,5-c]pyridine-4-carboxamide] | 99%
101% | Cn1cc(-c2cc(F)cc(CNC(=O)c3nccc4nc(C5CCCC5)n(CCO)c34)c2)cn1 [Example 115, 2-cyclopentyl-N-(3-fluoro-5-(1-methyl-1H-pyrazol-4-yl)benzyl)-3-(2-hydroxyethyl)-3H-imidazo[4,5-c]pyridine-4-carboxamide] | 94%
100% | Cn1cc(-c2cc(F)cc(CNC(=O)c3nccc4nc(C5CCOC5)n(C)c34)c2)cn1 (centres unmarked) [Example 117, N-(3-fluoro-5-(1-methyl-1H-pyrazol-4-yl)benzyl)-3-methyl-2-(tetrahydrofuran-3-yl)-3H-imidazo[4,5-c]pyridine-4-carboxamide] | 78%
98% | Cn1cc(-c2cc(F)cc(CNC(=O)c3nccc4nc(CC5CC5)[nH]c34)c2)cn1 [Example 126, 2-(cyclopropylmethyl)-N-(3-fluoro-5-(1-methyl-1H-pyrazol-4-yl)benzyl)-3H-imidazo[4,5-c]pyridine-4-carboxamide] | 56%
101% | Cn1cc(-c2cc(F)cc(CNC(=O)c3nccc4nc(C5CCCC5)n(CC(=O)O)c34)c2)cn1 [Example 127, (2-cyclopentyl-4-((3-fluoro-5-(1-methyl-1H-pyrazol-4-yl)benzyl)carbamoyl)-3H-imidazo[4,5-c]pyridin-3-yl)acetic acid] | 70%

From patent US10774083B2, “Heterocyclic amide compound” (TAKEDA PHARMACEUTICAL COMPANY LIMITED, priority 2016, dated 2020)
